# Legend:
# Alkaline phosphatase = experiment: Serum alkaline phosphatase activity; assay type: in vivo, rat; conditions: for increase in serum alkaline phosphatase activity: 3 days
# Description: Adult male rats (weighing 200-230 g) were divided into four groups of six animals each. Group 1 received an equivalent amount of saline and served as control. Animals from group 2, 3, and 4 were given methomyl 1, 2, and 4 mg/kg body weight i.p. respectively, between 8: 00 a.m. and 9:00 a.m., for three consecutive days. In the second set of experiments, adult male rats were divided into four groups. Animals from group 2, 3, and 4 were injected with 4 mg/kg body weight methomyl for one, three, and five successive days. The volume injected into the rats of body weight 200 g was 1 ml. In another experiment, adult female rats and old male rats (weighing 350-450 g, 8 months old) were divided into two groups of six animals each. […]
# Alanine aminotransferase and aspartate aminotransferase activity was measured using the Reitman and Frankel[12] method. Alkaline phosphatase activity was measured using Span diagnostic kits.[13] Cholinesterase activity was measured using the kinetic test method of Knedel et al.[14]
# red cell ChE = conditions: methomyl aerosol, male rats, repeated inhalation; cited from earlier work
# plasma ChE = conditions: methomyl aerosol, male rats, repeated inhalation; cited from earlier work
# cytochrome b5 = experiment: Hepatic microsomal cytochrome b5 level; assay type: in vivo, rat
# Description: Adult male rats (weighing 200-230 g) were divided into four groups of six animals each. Group 1 received an equivalent amount of saline and served as control. Animals from group 2, 3, and 4 were given methomyl 1, 2, and 4 mg/kg body weight i.p. respectively, between 8: 00 a.m. and 9:00 a.m., for three consecutive days. In the second set of experiments, adult male rats were divided into four groups. Animals from group 2, 3, and 4 were injected with 4 mg/kg body weight methomyl for one, three, and five successive days. The volume injected into the rats of body weight 200 g was 1 ml. In another experiment, adult female rats and old male rats (weighing 350-450 g, 8 months old) were divided into two groups of six animals each. Group 2 of each category received methomyl (4 mg/kg body weight, i.p., for three successive days), and group 1 of each category received an equivalent amount of saline and served as the control group.
# The rats were sacrificed by cervical dislocation, 24 hours after the last dose. Their livers were perfused in situ with ice cold 1.15% KCl containing 0.05 mM EDTA, rapidly excised, blotted dry, weighed, minced and homogenized with two volumes of ice cold 0.25 M sucrose solution, in a Potter-Elvehjem type homogenizer. The homogenate was centrifuged at 10,000 × g for 10 min, in a refrigerated centrifuge (REMI C-24). The microsomes were isolated by the procedure described by of Cinti et al.[4] The microsomal pellet was suspended in phosphate buffer (0.1 M, pH 7.4) and the suspension was used for the microsomal enzyme assays. Microsomal protein content was measured by the Biuret method, using bovine serum albumin as the standard.[5]
# The microsomal electron transport components (cytochrome P450 and cytochrome b5) were determined using Hitachi UV-Visible double beam recording spectrophotometer, by the procedure of Omura and Sato.[67] Cytochrome c reductase activity was determined using the method recommended by Masters et al.[8] Aminopyrine N-demethylase activity was assayed according to the procedure described by Schenkman et al.[9] Formaldehyde liberated during N-demethylation was estimated by the procedure described by Nash.[10] Aniline hydroxylase assay was performed using the procedure reported by Govindwar and Dalvi.[11]
smiles,measurement,setting,value
"CNC(=O)ON=C(C)SC [methomyl, S-methyl-N-(methyl carbomyl)-thioacetimidate]",Alkaline phosphatase,"Alkaline phosphatase; female rats, 1 mg/kg body weight i.p., for 3 days",19.0 KA units
same,increase in serum alkaline phosphatase activity,"Alkaline phosphatase; female rats, 1 mg/kg i.p.",33%
same,Alkaline phosphatase,"Alkaline phosphatase; female rats, 2 mg/kg body weight i.p., for 3 days",23.0 KA units
same,increase in serum alkaline phosphatase activity,"Alkaline phosphatase; female rats, 2 mg/kg i.p.",61%
same,Alkaline phosphatase,"Alkaline phosphatase; female rats, 4 mg/kg body weight i.p., for 3 days",26.7 KA units
same,increase in serum alkaline phosphatase activity,"Alkaline phosphatase; female rats, 4 mg/kg i.p.",87%
same,Alkaline phosphatase,"Alkaline phosphatase; male rats, 1 mg/kg body weight i.p., for three days",23.4 KA units
same,increase in serum alkaline phosphatase activity,"Alkaline phosphatase; male rats, 1 mg/kg i.p.",14%
same,Alkaline phosphatase,"Alkaline phosphatase; male rats, 2 mg/kg body weight i.p., for three days",26.4 KA units
same,increase in serum alkaline phosphatase activity,"Alkaline phosphatase; male rats, 2 mg/kg i.p.",29%
same,Alkaline phosphatase,"Alkaline phosphatase; male rats, 4 mg/kg body weight i.p., for three days",28.6 KA units
same,increase in serum alkaline phosphatase activity,"Alkaline phosphatase; male rats, 4 mg/kg i.p.",39%
same,effect on red cell ChE,red cell ChE,no cumulative effect
same,effect on plasma ChE,plasma ChE,marked suppression
same,decrease in the level of cytochrome b5,"cytochrome b5; adult female rat, 4 mg/kg i.p., three days, vs control",21%
same,Cytochrome b5,"cytochrome b5; adult female rats, 4 mg/kg body weight, i.p., three days",0.15 nmole/mg protein
same,Cytochrome b5,"cytochrome b5; adult male rats, 1 mg/kg i.p., for 3 days",0.16 nmole/mg protein
same,Cytochrome b5,"cytochrome b5; adult male rats, 2 mg/kg i.p., for 3 days",0.20 nmole/mg protein
same,Cytochrome b5,"cytochrome b5; adult male rats, 4 mg/kg i.p., for 3 days",0.19 nmole/mg protein
same,change in cytochrome b5,"cytochrome b5; adult male rats, 4 mg/kg i.p., one, three and five days",No significant change
same,change in cytochrome b5,"cytochrome b5; adult male rats, all the three doses (1, 2 and 4 mg/kg i.p., 3 days)",No significant change
same,Cytochrome b5,"cytochrome b5; adult rats, 4 mg/kg i.p., 1 day of treatment",0.25 nmole/mg protein
same,Cytochrome b5,"cytochrome b5; adult rats, 4 mg/kg i.p., 3 days of treatment",0.29 nmole/mg protein
same,Cytochrome b5,"cytochrome b5; adult rats, 4 mg/kg i.p., 5 days of treatment",0.28 nmole/mg protein
same,decrease in cytochrome b5,"cytochrome b5; old male rat, 4 mg/kg i.p., three days, vs control",51%
same,Cytochrome b5,"cytochrome b5; old male rats, 4 mg/kg body weight, i.p., three days",0.20 nmole/mg protein

# Source: article PMC2792609, “Effect of methomyl on hepatic mixed function oxidases in rats” (Indian Journal of Pharmacology, 2008)
